From patent US20220055989A1, “CONDENSED PYRROLES AS NOVEL BROMODOMAIN INHIBITORS” (ALBERT LUDWING UNIVERSITÄT FREIBURG, priority 2018, published 2022)
pKd: −log10 of the molar value.

What was measured:
[1] = target: T1, ATAD2A (Homo sapiens, UniProt Q6PL18); assay: Bromodomain assay % Ctrl determination ATAD2A; conditions: lower numbers indicate a stronger binding
T1 construct: T7 phage strains displaying bromodomains were grown in parallel; made in house; host or cells: T7 phage grown in an E. coli host derived from the BL21 strain
Description: (§1) Compounds that bind the bromodomain prevent its binding to the immobilized ligand thus reducing the amount of protein captured. […] Hits are identified by measuring the amount of bromodomain captured in test versus control samples. Bromodomain assays for % Ctrl determination: T7 phage strains displaying bromodomains were grown in parallel in 24-well blocks in an E. coli host derived from the BL21 strain. E. coli were grown to log-phase and infected with T7 phage from a frozen stock (multiplicity of infection=0.4) and incubated with shaking at 32° C. until lysis (90-150 minutes). The lysates were centrifuged (5,000×g) and filtered (0.2 μm) to remove cell debris. […] The liganded beads were blocked with excess biotin and washed with blocking buffer (SeaBlock (Pierce), 1% BSA, 0.05% Tween 20, 1 mM DTT) to remove unbound ligand and to reduce non-specific phage binding. […] Test compounds were prepared as 1000× stocks in 100% DMSO and subsequently diluted 1:25 in monoethylene glycol (MEG). The compounds were then diluted directly into the assays such that the final concentrations of DMSO and MEG were 0.1% and 2.4%, respectively. All reactions were performed in polypropylene 384-well plates in a final volume of 0.02 ml. […] The bromodomain concentration in the eluates was measured by qPCR. […]

[2] = target: T2, BAZ2A (Homo sapiens, UniProt Q9UIF9); assay: Bromodomain assay % Ctrl determination BAZ2A; conditions: lower numbers indicate a stronger binding
T2 construct: T7 phage strains displaying bromodomains were grown in parallel; made in house; host or cells: T7 phage grown in an E. coli host derived from the BL21 strain
Description: as §1

[3] = target: T3, BRDT(1) (Homo sapiens, UniProt Q58F21); assay: Bromodomain assay % Ctrl determination BRDT(1); conditions: lower numbers indicate a stronger binding
T3 construct: T7 phage strains displaying bromodomains were grown; host or cells: T7 phage in E. coli derived from BL21
Description: as §1

[4] = target: T4, BRPF1 (Homo sapiens, UniProt P55201); assay: Bromodomain assay % Ctrl determination BRPF1; conditions: lower numbers indicate a stronger binding
T4 construct: T7 phage strains displaying bromodomains were grown; host or cells: T7 phage in E. coli derived from BL21
T4 sequence (P55201 628-732 limits assumed): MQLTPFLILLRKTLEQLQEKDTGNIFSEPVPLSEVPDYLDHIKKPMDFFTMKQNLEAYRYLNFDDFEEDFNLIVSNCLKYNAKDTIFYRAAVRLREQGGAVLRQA
Description: as §1

[5] = target: T5, CREBBP (Homo sapiens, UniProt Q92793); assay: Bromodomain assay % Ctrl determination CREBBP; conditions: lower numbers indicate a stronger binding
T5 construct: T7 phage strains displaying bromodomains were grown; host or cells: T7 phage in E. coli derived from BL21
Description: as §1

[6] = target: T6, PBRM1(5) (Homo sapiens, UniProt Q86U86); assay: Bromodomain assay % Ctrl determination PBRM1(5); conditions: lower numbers indicate a stronger binding
T6 construct: T7 phage strains displaying bromodomains were grown in parallel; host or cells: T7 phage grown in E. coli host derived from BL21
Description: as §1

[7] = target: T7, SMARCA4 (Homo sapiens, UniProt P51532); assay: Bromodomain assay % Ctrl determination SMARCA4; conditions: lower numbers indicate a stronger binding
T7 construct: T7 phage strains displaying bromodomains were grown in parallel; host or cells: T7 phage grown in E. coli host derived from BL21
Description: as §1

[8] = target: T8, TAF1(2) (Homo sapiens, UniProt P21675); assay: Bromodomain assay % Ctrl determination TAF1(2); conditions: lower numbers indicate a stronger binding
T8 construct: FALZ, PBRM1-BD2, BPRM1-BDS, TAF1-BD2, TAF1L-BD2; host or cells: T7 phage grown in E. coli host derived from BL21
Description: as §1

[9] = target: T9, BRD2(1, 2) (Homo sapiens, UniProt P25440); assay: BROMOscan Kd determination BRD2(1, 2); format: binding
T9 construct: T7 phage strains displaying bromodomains were grown in parallel; made in house; host or cells: T7 phage grown in an E. coli host derived from the BL21 strain
Description: (§2) Bromodomain profiling was carried out on the basis of BROMOscan™. This platform accounted for the indirect determination of the dissociation constants between 19 bromodomains and the compound of formula (13), by binding competition against a reference immobilized ligand. Compounds that bind the bromodomain prevent its binding to the immobilized ligand thus reducing the amount of protein captured. […] Hits are identified by measuring the amount of bromodomain captured in test versus control samples. Bromodomain assays for Kd determination: T7 phage strains displaying bromodomains were grown in parallel in 24-well blocks in an E. coli host derived from the BL21 strain. E. coli were grown to log-phase and infected with T7 phage from a frozen stock (multiplicity of infection=0.4) and incubated with shaking at 32° C. until lysis (90-150 minutes). The lysates were centrifuged (5,000×g) and filtered (0.2 μm) to remove cell debris. […] Kds were determined using an 11-point 3-fold compound dilution series with one DMSO control point. […] The bromodomain concentration in the eluates was measured by qPCR. […] Most Kds were determined using a compound top concentration=10,000 nM. […] Binding Constants (Kds): Binding constants (Kds) were calculated with a standard dose-response curve using the Hill equation: The Hill Slope was set to −1. […]

[10] = target: T10, BRD8(2) (Homo sapiens, UniProt Q9H0E9); assay: BROMOscan Kd determination BRD8(2); format: binding
T10 construct: T7 phage strains displaying bromodomains were grown; host or cells: T7 phage in E. coli derived from BL21
Description: as §2

[11] = target: T11, EP300 (Homo sapiens, UniProt Q09472); assay: BROMOscan Kd determination EP300; format: binding
T11 construct: T7 phage strains displaying bromodomains were grown; host or cells: T7 phage in E. coli derived from BL21
T11 sequence (Q09472 1049-1156 limits assumed): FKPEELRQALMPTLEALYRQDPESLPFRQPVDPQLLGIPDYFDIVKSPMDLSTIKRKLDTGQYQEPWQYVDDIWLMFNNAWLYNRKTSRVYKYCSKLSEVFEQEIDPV
Description: Bromodomain profiling was carried out on the basis of BROMOscan™. This platform accounted for the indirect determination of the dissociation constants between 19 bromodomains and the compound of formula (13), by binding competition against a reference immobilized ligand. Compounds that bind the bromodomain prevent its binding to the immobilized ligand thus reducing the amount of protein captured. […] Hits are identified by measuring the amount of bromodomain captured in test versus control samples. Bromodomain assays for Kd determination: T7 phage strains displaying bromodomains were grown in parallel in 24-well blocks in an E. coli host derived from the BL21 strain. E. coli were grown to log-phase and infected with T7 phage from a frozen stock (multiplicity of infection=0.4) and incubated with shaking at 32° C. until lysis (90-150 minutes). The lysates were centrifuged (5,000×g) and filtered (0.2 μm) to remove cell debris. […] The liganded beads were blocked with excess biotin and washed with blocking buffer (SeaBlock (Pierce), 1% BSA, 0.05% Tween 20, 1 mM DTT) to remove unbound ligand and to reduce non-specific phage binding. […] Test compounds were prepared as 1000× stocks in 100% DMSO. Kds were determined using an 11-point 3-fold compound dilution series with one DMSO control point. All compounds for Kd measurements are distributed by acoustic transfer (non-contact dispensing) in 100% DMSO. The compounds were then diluted directly into the assays such that the final concentration of DMSO was 0.09%. All reactions performed in polypropylene 384-well plates. Each was a final volume of 0.02 ml. […] The bromodomain concentration in the eluates was measured by qPCR. […] All compounds for Kd measurements are distributed by acoustic transfer (non-contact dispensing) in 100% DMSO. The compounds were then diluted directly into the assays such that the final concentration of DMSO was 0.09%. Most Kds were determined using a compound top concentration=10,000 nM. If the initial Kd determined was <0.169 nM (the lowest concentration tested), the measurement was repeated with a serial dilution starting at a lower top concentration. Binding Constants (Kds): Binding constants (Kds) were calculated with a standard dose-response curve using the Hill equation: The Hill Slope was set to −1. Curves were fitted using a non-linear least square fit with the Levenberg-Marquardt algorithm.

[12] = target: T12, PBRM1(2) (Homo sapiens, UniProt Q86U86); assay: BROMOscan Kd determination PBRM1(2); format: binding
T12 construct: FALZ, PBRM1-BD2, BPRM1-BDS, TAF1-BD2, TAF1L-BD2; host or cells: T7 phage grown in E. coli host derived from BL21
Description: as §2

[13] = target: T13, TRIM24 (Bromo.) (Homo sapiens, UniProt O15164); assay: BROMOscan Kd determination TRIM24 (Bromo.); format: binding
T13 construct: T7 phage strains displaying bromodomains were grown in parallel; host or cells: T7 phage grown in E. coli host derived from BL21
Description: as §2

[14] = target: T14, TRIM33(PHD, Bromo.) (Homo sapiens, UniProt Q9UPN9); assay: BROMOscan Kd determination TRIM33(PHD, Bromo.); format: binding
T14 construct: TRIM33(PHD, Bromo.); the phage DNA is read by qPCR
Description: as §2

[15] = target: T15, WRD9(2) (Homo sapiens, UniProt Q9NSI6); assay: BROMOscan Kd determination WRD9(2); format: binding
T15 construct: T7 phage strains displaying bromodomains were grown in parallel; host or cells: T7 phage grown in E. coli host derived from BL21
Description: as §2

T15 sequence (Q9NSI6 1313-1418 limits assumed): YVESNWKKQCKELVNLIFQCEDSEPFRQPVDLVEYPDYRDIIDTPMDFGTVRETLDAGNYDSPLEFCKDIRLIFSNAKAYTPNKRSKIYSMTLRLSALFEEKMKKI
T13 sequence (O15164 899-1004 limits assumed): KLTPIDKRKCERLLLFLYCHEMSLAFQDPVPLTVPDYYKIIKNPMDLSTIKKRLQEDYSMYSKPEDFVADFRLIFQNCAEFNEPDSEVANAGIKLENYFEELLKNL
T10 sequence (Q9H0E9 1099-1207 limits assumed): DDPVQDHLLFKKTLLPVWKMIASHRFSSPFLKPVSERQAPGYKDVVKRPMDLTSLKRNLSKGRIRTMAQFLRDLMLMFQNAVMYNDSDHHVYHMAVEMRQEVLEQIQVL
T14 sequence (Q9UPN9 whole entry): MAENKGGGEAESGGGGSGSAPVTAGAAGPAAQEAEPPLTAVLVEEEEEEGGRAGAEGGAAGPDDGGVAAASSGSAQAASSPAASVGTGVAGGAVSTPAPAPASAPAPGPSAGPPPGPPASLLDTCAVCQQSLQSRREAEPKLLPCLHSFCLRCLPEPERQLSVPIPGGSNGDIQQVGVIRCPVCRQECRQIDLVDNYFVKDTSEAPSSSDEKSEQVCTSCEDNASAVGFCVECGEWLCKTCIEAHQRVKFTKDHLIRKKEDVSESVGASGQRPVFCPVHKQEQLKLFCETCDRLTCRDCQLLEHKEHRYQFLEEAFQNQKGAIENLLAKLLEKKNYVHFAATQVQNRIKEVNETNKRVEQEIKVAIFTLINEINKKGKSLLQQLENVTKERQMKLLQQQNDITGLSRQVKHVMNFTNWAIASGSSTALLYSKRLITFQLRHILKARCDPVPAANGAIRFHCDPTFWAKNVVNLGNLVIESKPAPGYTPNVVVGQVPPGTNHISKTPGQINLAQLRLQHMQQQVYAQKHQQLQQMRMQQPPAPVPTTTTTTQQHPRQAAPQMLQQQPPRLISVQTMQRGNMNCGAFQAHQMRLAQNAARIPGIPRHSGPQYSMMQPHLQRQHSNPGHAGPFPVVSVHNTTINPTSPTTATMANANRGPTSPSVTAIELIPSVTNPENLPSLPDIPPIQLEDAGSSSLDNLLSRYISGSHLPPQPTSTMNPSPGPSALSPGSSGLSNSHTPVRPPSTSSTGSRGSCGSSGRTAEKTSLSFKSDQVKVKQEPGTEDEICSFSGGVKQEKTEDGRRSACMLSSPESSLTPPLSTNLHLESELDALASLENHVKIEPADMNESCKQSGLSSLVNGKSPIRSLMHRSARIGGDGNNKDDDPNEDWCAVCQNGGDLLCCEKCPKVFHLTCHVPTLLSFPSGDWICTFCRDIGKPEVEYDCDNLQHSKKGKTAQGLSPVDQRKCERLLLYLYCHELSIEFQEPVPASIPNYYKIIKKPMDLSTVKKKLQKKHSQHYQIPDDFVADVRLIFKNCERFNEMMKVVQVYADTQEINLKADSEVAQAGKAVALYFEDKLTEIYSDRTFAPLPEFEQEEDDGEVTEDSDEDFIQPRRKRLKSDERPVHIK
T6 sequence (Q86U86 653-763 limits assumed): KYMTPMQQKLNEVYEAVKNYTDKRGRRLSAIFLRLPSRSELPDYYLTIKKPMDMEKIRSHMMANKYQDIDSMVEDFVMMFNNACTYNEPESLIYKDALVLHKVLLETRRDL
T9 sequence (P25440 71-455 limits assumed): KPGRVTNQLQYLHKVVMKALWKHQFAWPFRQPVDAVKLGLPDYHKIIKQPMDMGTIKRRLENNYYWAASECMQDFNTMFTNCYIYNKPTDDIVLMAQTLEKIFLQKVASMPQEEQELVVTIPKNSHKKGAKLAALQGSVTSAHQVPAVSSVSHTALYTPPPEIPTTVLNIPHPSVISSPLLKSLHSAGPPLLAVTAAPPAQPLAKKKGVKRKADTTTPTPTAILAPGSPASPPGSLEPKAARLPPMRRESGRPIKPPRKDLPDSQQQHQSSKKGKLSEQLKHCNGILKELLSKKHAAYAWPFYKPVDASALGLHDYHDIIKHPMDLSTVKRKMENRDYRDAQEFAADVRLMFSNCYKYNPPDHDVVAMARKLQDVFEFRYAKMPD
T12 sequence (Q86U86 177-287 limits assumed): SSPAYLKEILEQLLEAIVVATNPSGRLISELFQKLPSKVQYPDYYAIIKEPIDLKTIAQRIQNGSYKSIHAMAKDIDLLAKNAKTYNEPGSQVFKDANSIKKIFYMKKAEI
T7 sequence (P51532 1453-1564 limits assumed): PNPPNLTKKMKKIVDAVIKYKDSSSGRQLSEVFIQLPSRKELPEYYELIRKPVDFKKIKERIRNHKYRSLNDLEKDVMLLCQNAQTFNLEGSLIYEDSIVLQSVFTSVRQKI
T8 sequence (P21675 1519-1628 limits assumed): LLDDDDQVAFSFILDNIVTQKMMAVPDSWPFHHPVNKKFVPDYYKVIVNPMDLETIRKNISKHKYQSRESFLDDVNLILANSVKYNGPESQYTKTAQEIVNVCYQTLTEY
T5 sequence (Q92793 1085-1192 limits assumed): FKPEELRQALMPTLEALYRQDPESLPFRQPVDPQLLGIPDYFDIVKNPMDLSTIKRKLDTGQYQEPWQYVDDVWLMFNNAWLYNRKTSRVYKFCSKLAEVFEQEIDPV
T1 sequence (Q6PL18 980-1092 limits assumed): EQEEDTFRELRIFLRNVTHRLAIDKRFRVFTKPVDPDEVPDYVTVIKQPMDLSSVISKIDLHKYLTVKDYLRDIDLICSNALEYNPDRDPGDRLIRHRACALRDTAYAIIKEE
T2 sequence (Q9UIF9 1793-1897 limits assumed): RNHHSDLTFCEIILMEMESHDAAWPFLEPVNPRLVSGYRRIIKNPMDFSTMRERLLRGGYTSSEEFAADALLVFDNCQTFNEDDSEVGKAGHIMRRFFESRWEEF

## COc1ccc(S(=O)(=O)N2CCOCC2)cc1NC(=O)c1[nH]c(C)c2c1CCCCC2=O [Compound 13, N-(2-methoxy-5-(morpholinosulfonyl)phenyl)-3-methyl-4-oxo-2,4,5,6,7,8-hexahydrocyclohepta[c]pyrrole-1-carboxamide]
[1]
  % Ctrl @ 10 000 nM ATAD2A: 94 % Ctrl
[2]
  % Ctrl @ 10 000 nM BAZ2A: 24 % Ctrl
[3]
  % Ctrl @ 10 000 nM BRDT(1): 0 % Ctrl
[4]
  % Ctrl @ 10 000 nM BRPF1: 0.15 % Ctrl
[5]
  % Ctrl @ 10 000 nM CREBBP: 4.7 % Ctrl
[6]
  % Ctrl @ 10 000 nM PBRM1(5): 90 % Ctrl
[7]
  % Ctrl @ 10 000 nM SMARCA4: 71 % Ctrl
[8]
  % Ctrl @ 10 000 nM TAF1(2): 7.4 % Ctrl

## Cc1[nH]c(-c2cc(N)ccc2Cl)c2c1C(=O)CCCC2 [Compound 23]
[9]
  pKd: 7.08
[10]
  pKd: < 5.00
[11]
  pKd: 5.92
[12]
  pKd: 5.38
[13]
  pKd: 5.85
[14]
  pKd: 5.11
[15]
  pKd: < 5.00
